Source: US6743630B2, “Method of preparing a protein array based on biochemical protein-protein interaction” (The Trustees of Columbia University in the City of New York, priority 2002, dated 2004)
No end group written: not given here.

Tested on: Fas/FAP-1 binding
Test: In vitro inhibition assay of Fas/FAP-1 binding (GST-Fas, 35S-labeled FAP-1)
Conditions: 15-mer peptide 1-1000 μM; human PAMP 1 mM; peptides acetylated
Experimental: 3A. Inhibition assay of Fas/FAP-1 binding using the C-terminal 15 amino acids of Fas. GST-Fas fusion protein (191-355) was used for in vitro binding assay (lane 1, 3-10). GST-Fas fusion protein (191-320) (lane 2) and 1 mM human PAMP (N-terminal 20 amino acids of proadrenomedullin, M. W. 2460.9) (lane 3) were used as negative controls. The concentrations of the C-terminal 15 amino acids added were 1 (lane 4), 3 (lane 5), 10 (lane 6), 30 (lane 7), 100 (lane 8), 300 (lane 9), and 1000 μM (lane 10).
HFAP-10 cDNA (Sato, et al. 1995) subcloned into the Bluescript vector pSK-II (Stratagene) was in vitro-translated from an internal methionine codon in the presence of ^35S-L-methionine using a coupled in vitro transcription/translation system (Promega, TNT lysate) and T7 RNA polymerase. […] After washing vigorously 4 times in the same buffer, associated proteins were recovered with the glutathione-Sepharose beads by centrifugation, eluted into boiling Laemmli buffer, and analyzed by SDS-PAGE and fluorography.
In vitro-translated [^35S ]HFAP-1 was purified with a NAP-5 column (Pharmacia) and incubated with 3 μM of GST-fusion proteins for 16 hours at 4° C. After washing 4 times in the binding buffer, radioactivity incorporation was determined in a β counter. […]

Fas/FAP-1 binding, sequence (Q12923 1361-1456 limits assumed): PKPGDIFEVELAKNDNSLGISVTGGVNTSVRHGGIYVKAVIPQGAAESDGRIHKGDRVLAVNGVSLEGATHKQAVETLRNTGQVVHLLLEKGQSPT

“human PAMP peptide: N-terminal 20 amino acids of proadrenomedullin, negative control (ARLDVASEFRKKWNKWALSR; ends and bridges not checked; UniProt P35318 22-41, looked up)” was tested, and the “inhibitory effect on binding of in vitro-translated FAP-1 to GST-Fas” value was “no effect”.
“synthetic 15 amino acids of Fas: synthetic peptide of the C-terminal 15 amino acids of Fas (Ac-DSENSNFRNEIQSLV)” was tested, and the “inhibitory effect on binding of in vitro-translated FAP-1 to GST-Fas” value was “dramatically reduced and dependent on the concentration”.
